Data taken from publication PMC12051620, “Molecular basis underlying the specificity of an antagonist AA92593 for mammalian melanopsins” (The Journal of Biological Chemistry, 2025).

What was measured:
[1] = test system: mouse melanopsin L207^5.42F mutant; test: GsX GloSensor assay with Gsα/q11; assay type: cell-based; details: 16.7 μM AA92593, COS-1 cells
Text: (§1) Next, we attempted to render human melanopsin more ineffective to AA92593 by combining W189^ECL2F with F94^2.61C/S188^ECL2T/S269^6.52A. […] We note that the loss of sensitivity for AA92593 by the quadruple substitutions was not due to the substitutions-induced changes in absorption spectrum or localization in COS-1 cells. […] In the GloSensor assay, a small difference in G protein activation between the triple and quadruple mutants in the presence of AA92593 would be amplified through the second messenger signaling cascade.
(§2) For GloSensor assay, opsins, GloSensor assay sensor (coded by pGlo-22F), and NanoBiT-tagged G proteins were transiently expressed in COS-1 cells (kindly provided from Dr David Farrens, Oregon Health and Science University) using PEI as described previously ([24], [52]). For the GsX GloSensor assay ([12], [13]), each well of a 96-well assay plate (Corning) was transfected with 50 ng opsin plasmid, 16.7 ng G protein plasmid, 50 ng pGlo-22F plasmid (Promega), and 500 ng PEI in 25 μl Opti-mem and 75 μl Dulbecco's modified Eagle's medium (D-MEM). […] For GFP-fluorescence microscopy, a 35-mm cell culture dish (IWAKI) was transfected with 2 μg melanopsin-GFP plasmid and 8 μg PEI in 400 μl Opti-mem and 1.2 ml D-MEM. […]

[2] = molecular target: T1, human melanopsin F94^2.61C/S188^ECL2T/W189^ECL2F/S269^6.52A mutant (Homo sapiens, UniProt Q9UHM6, F127C/S222T/S313A/W223F); test: GsX GloSensor assay with Gsα/q11; assay type: cell-based; details: up to 16.7 μM AA92593, COS-1 cells
T1 construct: expressed in transfected cells; host or cells: COS-1
Text: as §1, §2

T1 sequence (Q9UHM6 1-384 F127C/S222T/W223F/S313A): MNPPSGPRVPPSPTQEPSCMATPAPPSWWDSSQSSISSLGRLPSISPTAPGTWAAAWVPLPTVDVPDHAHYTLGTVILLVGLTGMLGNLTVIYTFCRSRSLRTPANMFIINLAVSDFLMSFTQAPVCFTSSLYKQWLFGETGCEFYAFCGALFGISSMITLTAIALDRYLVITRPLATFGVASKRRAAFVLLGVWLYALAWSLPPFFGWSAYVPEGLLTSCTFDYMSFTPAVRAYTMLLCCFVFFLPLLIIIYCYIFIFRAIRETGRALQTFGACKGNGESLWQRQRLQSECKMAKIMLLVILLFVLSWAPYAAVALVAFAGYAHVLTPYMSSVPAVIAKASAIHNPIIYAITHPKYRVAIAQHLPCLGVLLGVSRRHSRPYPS

COc1ccc(S(=O)(=O)N2CCCCC2)cc1C [AA92593]
increased susceptibility to the antagonist vs WT [1]: ~26%
sensitivity to AA92593 [2]: almost completely lost sensitivity
